Measurements published in patent publication US20060034889A1, “Biodegradable diblock copolymers having reverse thermal gelation properties and methods of use thereof” (MacroMed, Inc., priority 2004, published 2006).

Settings: 30% by weight aqueous PLG-PEG diblock copolymer solutions or gels, 120 days, 5 °C and 37 °C

drug intact after storage: greater than 85%
SMILES: CC(=O)O[C@H]1C(=O)[C@@]2(C)[C@H]([C@H](OC(=O)c3ccccc3)[C@]3(O)C[C@H](OC(=O)[C@H](O)[C@@H](NC(=O)c4ccccc4)c4ccccc4)C(C)=C1C3(C)C)[C@]1(OC(C)=O)CO[C@@H]1C[C@@H]2O [paclitaxel]
